Assay results reported in patent US11015216B2, “Substituted imidazo[1,2-a]pyrazines as luciferase substrates” (PROMEGA CORPORATION, priority 2016, dated 2021).

What was measured:
NanoLuc® Luciferase = NanoLuc® Luciferase (Oplophorus gracilirostris, UniProt Q9GV45, A31E/A60N/A81I/F95D/I117V/K70R/L54V/L99Q/M102K/N193R/P142E/Q151K/Q38R/Q45L/V71I/Y165I); type: biochemical; settings: ratio to coelenterazine (=1); for I (relative light units, ratio in comparison to native coelenterazine): initial light output three minutes after substrate addition; for Half-life (signal half-life, ratio in comparison to native coelenterazine): read at five minute intervals
Protocol: (§1) Luminescence Assay Procedure: Each compound to be screened was dissolved in DMSO (5 mM) and then further diluted to 100 uM in NANO-GLOR Luciferase Assay Buffer. Each diluted substrate was then combined in equal volumes with purified NanoLuc® Luciferase diluted into CO2 independent media+10% FBS. Initial light output for each substrate was measured in a GloMax®-Multi+ luminometer three minutes after substrate addition and then at five minute intervals as a means to determine signal half-life.
A subset of the synthesized coelenterazine analogues (compounds of formula (I)) were evaluated for their suitability as luciferase substrates. NANOLUC® luciferase was employed for the screening because it is a small (19 kDa), stable, and particularly bright enzyme.

luciferase [1] = test: Additional luciferase substrate assay, compared to known analogue C-1 (Table 3); type: biochemical; settings: relative to C-1 (=1)
Protocol: as §1
The compounds of formula (I) were also evaluated for their ability to be luciferase substrates in an additional assay.

luciferase [2] = test: as above; type: biochemical; settings: relative to C-1 (=1); cell marked (75) instead of @100 uM
HeLa cells = test: Cell viability assay, HeLa; type: cell-based; settings: 24 h incubation, serial dilution, FIGS. 3 and 4
Protocol: (§2) Cell Culture: HeLa and HEK293 cells were maintained in DMEM containing 0.3 mg/ml glutamine, 100 IU/ml penicillin, 100 μg/ml streptomycin, and 10% fetal calf serum at 37° C. in 5% CO2. Dulbecco's modified eagle medium (DMEM), Opti-MEM, Penicillin/Streptomycin, and Trypsin-EDTA were purchased from Life Technologies (Carlsbad). Fetal calf serum (FBS) was purchased from HyClone (GE Healthcare). Microtiter plates were purchased from Corning.
(§3) Cell viability assay: HEK293 or HeLa cells were plated in […] growth medium (DMEM supplemented with 10% FBS) into wells of white, TC-treated, 96-well plates at a density of 10000 cells per well and incubated for 24 h. The growth medium was then replaced with 100 μl Opti-MEM medium, which contained a serial dilution of the indicated compound. Changes in cell viability were then measured after incubation for 24 h using the […]® Green cell viability assay (Promega) according to manufacturer instructions. All luminescent measurements were performed on a GLOMAX® Discover multimode plate reader (Promega).

HEK293 cells = test: Cell viability assay, HEK293; type: cell-based; settings: Hek293, 24 h incubation, serial dilution; FIGS. 5 and 6
Protocol: as §2, §3

Chain of NanoLuc® Luciferase (Q9GV45 other isoform, or with tags, fused parts or gaps with the stated changes): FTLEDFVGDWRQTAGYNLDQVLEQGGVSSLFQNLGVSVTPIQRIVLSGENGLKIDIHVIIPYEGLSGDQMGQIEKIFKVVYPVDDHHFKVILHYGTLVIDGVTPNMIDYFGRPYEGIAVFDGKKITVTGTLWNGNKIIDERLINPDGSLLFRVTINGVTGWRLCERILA

SMILES	I (relative light units, ratio in comparison to native coelenterazine) (NanoLuc® Luciferase)	Half-life (signal half-life, ratio in comparison to native coelenterazine) (NanoLuc® Luciferase)	RLU (@100 uM) (luciferase [1])	RLU (luciferase [2])	compound-induced cellular toxicity compared to coelenterazine (HeLa cells)	compound-induced cellular toxicity compared to coelenterazine (HEK293 cells)
Cn1nc(-c2cccs2)cc1Cc1nc2c(Cc3ccccc3)[nH]c(-c3ccccc3)cn-2c1=O [Compound 12]	0.192	0.57	0.0046	–	–	–
Cc1noc(C)c1Cc1nc2c(Cc3ccccc3)[nH]c(-c3ccccc3)cn-2c1=O [Compound 13]	0.583	2.64	0.014	–	–	–
O=c1c(Cc2cn(-c3ccccc3)nc2-c2ccccc2)nc2c(Cc3ccccc3)[nH]c(-c3ccccc3)cn1-2 [Compound 14]	0.042	2.15	0.001	–	–	–
COc1ncc(Cc2nc3c(Cc4ccccc4)[nH]c(-c4ccccc4)cn-3c2=O)cn1 [Compound 15]	0.583	0.88	0.014	–	–	–
Cn1cc(Cc2nc3c(Cc4ccccc4)[nH]c(-c4ccccc4)cn-3c2=O)c(=O)n(C)c1=O [Compound 16]	0.0042	0.005	0.0001	–	–	–
O=c1c(Cc2ccc(F)c(O)c2)nc2c(Cc3ccccc3)[nH]c(-c3ccccc3)cn1-2 [Compound 20]	–	–	–	0.29 (75)	–	–
COc1cc(F)ccc1Cc1nc2c(Cc3ccccc3)[nH]c(-c3ccccc3)cn-2c1=O [Compound 22]	–	–	–	0.3 (75)	–	–
O=c1c(Cc2cccnc2)nc2c(Cc3ccccc3)[nH]c(-c3ccccc3)cn1-2 [Compound 64]	2.75	3.03	0.066	–	–	–
O=c1c(Cc2ccc(F)nc2F)nc2c(Cc3ccccc3)[nH]c(-c3ccccc3)cn1-2 [Compound 65]	10.833	0.62	0.26	–	–	–
O=c1c(Cc2cncc(F)c2)nc2c(Cc3ccccc3)[nH]c(-c3ccccc3)cn1-2 [Compound 66]	1.625	0.98	0.039	–	–	–
O=c1c(Cc2cccnc2F)nc2c(Cc3ccccc3)[nH]c(-c3ccccc3)cn1-2 [Compound 67]	4.583	1.14	0.11	–	–	–
O=c1c(Cc2ccc(F)nc2)nc2c(Cc3ccccc3)[nH]c(-c3ccccc3)cn1-2 [Compound 68]	12.916	0.93	0.31	–	–	–
O=c1c(Cc2ccc(Cl)nc2)nc2c(Cc3ccccc3)[nH]c(-c3ccccc3)cn1-2 [Compound 69]	7.5	0.35	0.18	–	–	–
O=c1c(Cc2ccc(Br)nc2)nc2c(Cc3ccccc3)[nH]c(-c3ccccc3)cn1-2 [Compound 70]	5	0.19	0.12	–	–	–
COc1ccc(Cc2nc3c(Cc4ccccc4)[nH]c(-c4ccccc4)cn-3c2=O)cn1 [Compound 71]	27.083	0.14	0.65	–	–	–
COc1cncc(Cc2nc3c(Cc4ccccc4)[nH]c(-c4ccccc4)cn-3c2=O)c1 [Compound 72]	1.208	0.88	0.029	–	–	–
COc1ccc(Cc2nc3c(Cc4ccccc4)[nH]c(-c4ccccc4)cn-3c2=O)c(OC)n1 [Compound 73]	6.666	0.93	0.16	–	–	–
COc1nc(Cl)ccc1Cc1nc2c(Cc3ccccc3)[nH]c(-c3ccccc3)cn-2c1=O [Compound 74]	3	1.09	0.072	–	–	–
O=c1c(Cc2ccc(Cl)nc2Cl)nc2c(Cc3ccccc3)[nH]c(-c3ccccc3)cn1-2 [Compound 75]	0.958	0.57	0.023	–	–	–
Cc1ccc(Cc2nc3c(Cc4ccccc4)[nH]c(-c4ccccc4)cn-3c2=O)cn1 [Compound 76]	1.666	1.14	0.04	–	notably reduced toxicity	notably reduced toxicity
CN(C)c1ccc(Cc2nc3c(Cc4ccccc4)[nH]c(-c4ccccc4)cn-3c2=O)cn1 [Compound 77]	1.75	0.57	0.042	–	–	–
O=c1c(Cc2c(F)cc(F)cc2F)nc2c(Cc3ccccc3)[nH]c(-c3ccccc3)cn1-2 [Compound 78]	8.75	0.43	0.21	–	–	–
N#Cc1cccc(Cc2nc3c(Cc4ccccc4)[nH]c(-c4ccccc4)cn-3c2=O)c1 [Compound 79]	13.87	0.52	0.33	–	–	–
O=c1c(Cc2cn3ccsc3n2)nc2c(Cc3ccccc3)[nH]c(-c3ccccc3)cn1-2 [Compound 80]	2.166	1.62	0.052	–	–	–
O=c1c(Cc2ccc(CN3CCOCC3)o2)nc2c(Cc3ccccc3)[nH]c(-c3ccccc3)cn1-2 [Compound 81]	0.246	1.19	0.0059	–	–	–
O=c1c(Cc2cnns2)nc2c(Cc3ccccc3)[nH]c(-c3ccccc3)cn1-2 [Compound 82]	5.416	1.19	0.13	–	–	–
